The values below come from ChEMBL document CHEMBL5108052, “Histone Deacetylase and Enhancer of Zeste Homologue 2 Dual Inhibitors Presenting a Synergistic Effect for the Treatment of Hematological Malignancies” (J Med Chem, 2022).

Structures are written as SMILES.

Experiment [1] relates to MV4-11. Briefly: Induction of mitochondrial membrane potential in human MV4-11 cells assessed as reduction in red fluorescence intensity at 0.2 uM measured after 48 hrs by JC1 staining-based flow cytometry analysis (reference value: 98.8%). Format: functional. On the set-up: scale not given: the % may be the effect or the level left.
The test system of experiment [2] is MV4-11. The experiment is described as follows: Induction of mitochondrial membrane potential in human MV4-11 cells assessed as reduction in red fluorescence intensity at 0.1 uM measured after 48 hrs by JC1 staining-based flow cytometry analysis (reference value: 98.8%). Also on record: scale not given: the % may be the effect or the level left. Format: functional. Background: In flow cytometry, cells or beads pass a laser one at a time.

A further experiment deals with T1, Histone deacetylase 11 (Homo sapiens, UniProt Q96DB2).
T1 sequence (Q96DB2 whole entry): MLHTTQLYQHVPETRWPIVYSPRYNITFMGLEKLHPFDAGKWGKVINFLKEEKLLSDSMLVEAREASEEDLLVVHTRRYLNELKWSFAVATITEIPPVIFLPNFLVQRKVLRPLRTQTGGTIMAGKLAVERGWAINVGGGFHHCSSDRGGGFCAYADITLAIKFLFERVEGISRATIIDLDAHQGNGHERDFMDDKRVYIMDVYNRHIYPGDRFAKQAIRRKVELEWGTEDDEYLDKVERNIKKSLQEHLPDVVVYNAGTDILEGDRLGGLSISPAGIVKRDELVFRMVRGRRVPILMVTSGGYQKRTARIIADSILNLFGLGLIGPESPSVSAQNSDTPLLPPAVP
Briefly: Inhibition of N-terminal Strep2-tagged recombinant His-tagged human HDAC11 (1 to 347 residues) using trifluoroacetyl lysine as substrate incubated for 2 hrs by Multimode microplate reader analysis.

The subject of experiment [3] is MV4-11. Briefly: Induction of apoptosis in human MV4-11 cells assessed as necrotic cells at 0.4 uM measured after 48 hrs by Annexin V/7-AAD-dual staining based flow cytometric analysis (reference value: 0.3 %). Type of experiment: functional.
Experiment [4] deals with T2, Protein deacetylase HDAC6 (Homo sapiens, UniProt Q9UBN7).
T2 sequence (Q9UBN7 whole entry): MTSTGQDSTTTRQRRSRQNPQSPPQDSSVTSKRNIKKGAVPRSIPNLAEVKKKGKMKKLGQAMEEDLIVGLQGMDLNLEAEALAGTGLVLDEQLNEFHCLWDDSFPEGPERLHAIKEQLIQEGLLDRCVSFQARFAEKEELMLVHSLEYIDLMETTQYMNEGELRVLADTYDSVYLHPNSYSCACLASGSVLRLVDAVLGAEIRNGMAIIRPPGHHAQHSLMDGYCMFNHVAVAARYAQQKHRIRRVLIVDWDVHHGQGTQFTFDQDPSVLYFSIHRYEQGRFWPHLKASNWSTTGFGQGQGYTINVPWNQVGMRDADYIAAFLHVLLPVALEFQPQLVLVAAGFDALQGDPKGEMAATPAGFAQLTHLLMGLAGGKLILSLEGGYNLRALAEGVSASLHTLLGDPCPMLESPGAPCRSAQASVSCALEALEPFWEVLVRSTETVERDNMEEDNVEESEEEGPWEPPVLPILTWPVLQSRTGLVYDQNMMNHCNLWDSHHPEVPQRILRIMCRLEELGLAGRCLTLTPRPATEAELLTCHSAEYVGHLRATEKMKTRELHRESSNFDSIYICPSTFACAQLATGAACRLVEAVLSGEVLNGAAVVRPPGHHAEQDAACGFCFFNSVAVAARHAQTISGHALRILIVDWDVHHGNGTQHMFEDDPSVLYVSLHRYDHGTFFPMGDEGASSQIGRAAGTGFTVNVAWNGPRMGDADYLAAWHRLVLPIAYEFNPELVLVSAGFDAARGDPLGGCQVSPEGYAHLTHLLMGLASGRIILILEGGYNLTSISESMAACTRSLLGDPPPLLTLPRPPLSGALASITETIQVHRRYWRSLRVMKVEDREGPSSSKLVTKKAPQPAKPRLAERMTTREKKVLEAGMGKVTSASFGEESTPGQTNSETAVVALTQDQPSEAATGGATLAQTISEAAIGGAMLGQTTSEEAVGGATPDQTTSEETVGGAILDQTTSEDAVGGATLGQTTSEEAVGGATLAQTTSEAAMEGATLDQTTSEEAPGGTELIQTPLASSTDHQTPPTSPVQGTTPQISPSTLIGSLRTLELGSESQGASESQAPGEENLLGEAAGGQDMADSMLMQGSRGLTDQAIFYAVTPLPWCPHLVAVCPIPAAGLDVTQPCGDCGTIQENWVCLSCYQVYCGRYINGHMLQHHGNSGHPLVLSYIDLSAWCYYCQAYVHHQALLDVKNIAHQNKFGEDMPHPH
Briefly: Inhibition of full length recombinant N-terminal GST-tagged human HDAC6 (1 to 1215 residues) expressed in baculovirus infected insect cells incubated for 2 hrs by Multimode microplate reader analysis.

The target in experiment [5] is T2, Protein deacetylase HDAC6. The experiment is described as follows: Inhibition of HDAC6 (unknown origin) preincubated for 5 mins followed by substrate addition and measured after 30 mins by multimode microplate reader analysis.
In experiment [6] the test system is MV4-11. The experiment is described as follows: Induction of apoptosis in human MV4-11 cells assessed as late apoptotic cells at 0.2 uM measured after 48 hrs by Annexin V/7-AAD-dual staining based flow cytometric analysis (reference value: 1.1 %). Type of experiment: functional.

As for `Cc1cc(C)c(CNC(=O)c2cc(-c3ccc(N4CCN(c5ncc(C(=O)NO)cn5)CC4)nc3)cc3c2cnn3C(C)C)c(=O)[nH]1`, the Activity turned out to be 84.3% in the experiment on MV4-11 [1], 92.9% in the experiment on MV4-11 [2], 0.1% in the experiment with MV4-11 [3] and 11.1% in the experiment with MV4-11 [6]. Besides, the values for the IC50 (on Histone deacetylase 11; in experiment [4]; in experiment [5]) were 2560 nM, 700 nM and 700 nM, respectively.
